Assay results reported in ChEMBL document CHEMBL5463725, “Data for DCP probe BAY-277” (2023).

How the values were obtained:
[1] = biological target: Vasopressin V1a receptor (Homo sapiens) (UniProt P37288); assay: Inhibition of Vasopressin V1A at 10.0 µM in the Eurofins Panlabs Safety Screen; settings: Compound concentration 10.0 uM
[2] = biological target: Kappa-type opioid receptor (Homo sapiens) (UniProt P41145); settings: Compound concentration 10.0 uM
[3] = biological target: Neuronal acetylcholine receptor; alpha3/beta4 (Homo sapiens) (UniProt P30926+P32297); assay: Inhibition of Nicotinic Acetylcholine alpha3beta4 at 10.0 µM in the Eurofins Panlabs Safety Screen; assay type: protein-complex assay; settings: Compound concentration 10.0 uM
[4] = biological target: Acetylcholinesterase (Homo sapiens) (UniProt P22303); assay: Inhibition of Cholinesterase, Acetyl, ACES at 10.0 µM in the Eurofins Panlabs Safety Screen; settings: Compound concentration 10.0 uM
[5] = biological target: Muscarinic acetylcholine receptor M3 (Homo sapiens, UniProt P20309); assay: Inhibition of Muscarinic M3 at 10.0 µM in the Eurofins Panlabs Safety Screen; settings: Compound concentration 10.0 uM
Chain of Muscarinic acetylcholine receptor M3 (P20309 whole entry, looked up): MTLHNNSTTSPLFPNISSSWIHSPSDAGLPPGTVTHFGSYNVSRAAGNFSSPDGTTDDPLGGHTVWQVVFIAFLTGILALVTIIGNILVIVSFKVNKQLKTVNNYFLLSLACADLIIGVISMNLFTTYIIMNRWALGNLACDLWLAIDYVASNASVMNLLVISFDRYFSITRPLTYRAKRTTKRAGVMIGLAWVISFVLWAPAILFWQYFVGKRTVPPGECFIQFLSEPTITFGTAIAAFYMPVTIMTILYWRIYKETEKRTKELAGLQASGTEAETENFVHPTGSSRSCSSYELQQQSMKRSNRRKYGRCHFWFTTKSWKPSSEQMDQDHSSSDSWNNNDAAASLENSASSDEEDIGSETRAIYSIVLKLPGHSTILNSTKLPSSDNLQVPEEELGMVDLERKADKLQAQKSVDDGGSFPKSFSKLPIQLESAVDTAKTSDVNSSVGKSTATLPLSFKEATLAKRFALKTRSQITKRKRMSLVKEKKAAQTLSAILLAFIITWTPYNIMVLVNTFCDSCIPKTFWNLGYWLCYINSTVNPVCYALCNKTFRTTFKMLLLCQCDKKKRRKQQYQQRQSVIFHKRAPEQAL

[6] = biological target: B2 bradykinin receptor (Homo sapiens) (UniProt P30411); assay: Inhibition of Bradykinin B2 at 10.0 µM in the Eurofins Panlabs Safety Screen; settings: Compound concentration 10.0 uM
Chain of B2 bradykinin receptor (Homo sapiens) (P30411 whole entry): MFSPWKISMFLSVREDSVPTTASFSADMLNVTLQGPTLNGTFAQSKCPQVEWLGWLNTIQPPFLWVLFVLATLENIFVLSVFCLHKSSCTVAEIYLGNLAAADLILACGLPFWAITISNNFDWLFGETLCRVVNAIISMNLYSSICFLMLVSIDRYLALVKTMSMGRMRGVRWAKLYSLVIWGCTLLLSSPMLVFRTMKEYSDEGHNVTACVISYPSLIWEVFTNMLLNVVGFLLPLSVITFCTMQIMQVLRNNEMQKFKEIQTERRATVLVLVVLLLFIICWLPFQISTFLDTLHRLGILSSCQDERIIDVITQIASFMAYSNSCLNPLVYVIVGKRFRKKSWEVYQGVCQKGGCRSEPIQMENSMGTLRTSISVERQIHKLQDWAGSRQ

[7] = biological target: Endothelin receptor type B (Homo sapiens) (UniProt P24530); assay: Inhibition of Endothelin ETB at 10.0 µM in the Eurofins Panlabs Safety Screen; settings: Compound concentration 10.0 uM
[8] = biological target: Alpha-1D adrenergic receptor (Homo sapiens) (UniProt P25100); settings: Compound concentration 10.0 uM
Chain of Alpha-1D adrenergic receptor (Homo sapiens) (P25100 whole entry): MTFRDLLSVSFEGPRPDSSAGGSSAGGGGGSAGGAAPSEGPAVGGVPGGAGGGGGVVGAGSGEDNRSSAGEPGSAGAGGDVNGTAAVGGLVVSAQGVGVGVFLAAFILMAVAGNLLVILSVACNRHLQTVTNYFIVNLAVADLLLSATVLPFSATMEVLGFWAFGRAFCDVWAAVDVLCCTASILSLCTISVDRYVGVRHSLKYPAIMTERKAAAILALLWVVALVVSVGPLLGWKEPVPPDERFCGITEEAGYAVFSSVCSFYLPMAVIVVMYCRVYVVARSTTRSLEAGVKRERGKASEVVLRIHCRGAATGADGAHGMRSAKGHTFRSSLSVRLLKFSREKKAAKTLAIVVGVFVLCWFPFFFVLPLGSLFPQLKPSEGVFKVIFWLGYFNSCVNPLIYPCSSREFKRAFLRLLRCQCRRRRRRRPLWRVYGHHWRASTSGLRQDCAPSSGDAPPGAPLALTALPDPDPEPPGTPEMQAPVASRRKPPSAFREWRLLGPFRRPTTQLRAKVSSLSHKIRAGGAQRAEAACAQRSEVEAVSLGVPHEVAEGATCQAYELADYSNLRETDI

[9] = biological target: T1, Alpha-2C adrenergic receptor (Homo sapiens) (UniProt P18825); assay: Inhibition of Adrenergic alpha2C at 10.0 µM in the Eurofins Panlabs Safety Screen; settings: Compound concentration 10.0 uM
T1 sequence (whole entry): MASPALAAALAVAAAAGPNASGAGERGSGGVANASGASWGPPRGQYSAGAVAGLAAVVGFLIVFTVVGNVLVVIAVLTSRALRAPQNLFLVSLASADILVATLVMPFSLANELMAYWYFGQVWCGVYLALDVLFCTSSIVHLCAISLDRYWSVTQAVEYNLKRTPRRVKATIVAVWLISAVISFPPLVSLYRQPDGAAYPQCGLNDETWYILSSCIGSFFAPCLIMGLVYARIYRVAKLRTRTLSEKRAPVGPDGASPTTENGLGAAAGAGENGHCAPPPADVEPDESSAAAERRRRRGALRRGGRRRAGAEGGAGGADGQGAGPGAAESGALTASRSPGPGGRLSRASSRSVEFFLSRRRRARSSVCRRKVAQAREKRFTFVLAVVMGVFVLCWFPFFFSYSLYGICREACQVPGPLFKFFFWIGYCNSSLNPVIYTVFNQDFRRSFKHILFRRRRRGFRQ

[10] = biological target: Tyrosine-protein kinase Blk (Homo sapiens) (UniProt P51451); assay: Inhibition of Blk(h) at 10.0 µM in the Eurofins Kinase panel; settings: Compound concentration 10.0 uM
[11] = biological target: Kappa-type opioid receptor (Homo sapiens) (UniProt P41145); assay: Inhibition of Opiate kappa(OP2, KOP) at 10.0 µM in the Eurofins Panlabs Safety Screen; settings: Compound concentration 10.0 uM
[12] = biological target: Death-associated protein kinase 3 (Homo sapiens) (UniProt O43293); assay: Inhibition of ZIPK(h) at 10.0 µM in the Eurofins Kinase panel; settings: Compound concentration 10.0 uM
[13] = biological target: D(2) dopamine receptor (Homo sapiens) (UniProt P14416); assay: Inhibition of Dopamine D2L at 10.0 µM in the Eurofins Panlabs Safety Screen; settings: Compound concentration 10.0 uM
Chain of D(2) dopamine receptor (Homo sapiens) (P14416 whole entry): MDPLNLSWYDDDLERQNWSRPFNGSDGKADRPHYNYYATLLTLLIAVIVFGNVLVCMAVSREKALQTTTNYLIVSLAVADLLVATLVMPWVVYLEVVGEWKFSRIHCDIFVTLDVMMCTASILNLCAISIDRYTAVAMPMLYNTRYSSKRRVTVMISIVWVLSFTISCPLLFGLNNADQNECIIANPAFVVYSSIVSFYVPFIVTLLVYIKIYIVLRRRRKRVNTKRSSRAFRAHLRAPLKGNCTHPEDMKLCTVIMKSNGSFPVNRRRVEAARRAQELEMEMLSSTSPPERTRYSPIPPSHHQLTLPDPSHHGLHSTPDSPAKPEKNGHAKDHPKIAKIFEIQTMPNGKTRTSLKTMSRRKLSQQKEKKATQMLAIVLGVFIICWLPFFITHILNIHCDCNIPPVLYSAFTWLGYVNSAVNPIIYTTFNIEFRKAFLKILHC

[14] = biological target: D(2) dopamine receptor (Homo sapiens) (UniProt P14416); settings: Compound concentration 10.0 uM
[15] = biological target: Insulin receptor (Homo sapiens) (UniProt P06213); assay: Inhibition of Insulin at 10.0 µM in the Eurofins Panlabs Safety Screen; settings: Rattus norvegicus; Compound concentration 10.0 uM
[16] = biological target: Nitric oxide synthase, inducible (Homo sapiens) (UniProt P35228); assay: Inhibition of Nitric Oxide Synthetase, Inducible (iNOS) at 10.0 µM in the Eurofins Panlabs Safety Screen; settings: Mus musculus; Compound concentration 10.0 uM
[17] = biological target: Cannabinoid receptor 2 (Homo sapiens) (UniProt P34972); assay: Inhibition of Cannabinoid CB2 at 10.0 µM in the Eurofins Panlabs Safety Screen; settings: Compound concentration 10.0 uM
[18] = biological target: T2, Alpha-2A adrenergic receptor (Homo sapiens) (UniProt P08913); assay: Inhibition of Adrenergic alpha2A at 10.0 µM in the Eurofins Panlabs Safety Screen; settings: Compound concentration 10.0 uM
T2 sequence (whole entry): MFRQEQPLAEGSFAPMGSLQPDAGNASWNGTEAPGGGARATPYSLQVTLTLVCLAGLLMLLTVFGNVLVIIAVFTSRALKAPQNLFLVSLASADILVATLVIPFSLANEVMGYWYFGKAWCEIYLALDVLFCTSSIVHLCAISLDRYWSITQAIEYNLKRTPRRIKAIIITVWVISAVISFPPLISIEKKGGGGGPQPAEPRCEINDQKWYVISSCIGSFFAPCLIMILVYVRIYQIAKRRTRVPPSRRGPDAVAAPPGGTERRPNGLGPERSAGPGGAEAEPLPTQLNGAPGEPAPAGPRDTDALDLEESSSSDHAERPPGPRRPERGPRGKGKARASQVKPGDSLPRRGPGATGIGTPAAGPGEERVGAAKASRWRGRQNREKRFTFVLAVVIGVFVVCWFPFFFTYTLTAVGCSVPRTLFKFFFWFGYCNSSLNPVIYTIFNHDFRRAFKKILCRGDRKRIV

[19] = biological target: Beta-2 adrenergic receptor (Homo sapiens) (UniProt P07550); assay: Inhibition of Adrenergic beta2 at 10.0 µM in the Eurofins Panlabs Safety Screen; settings: Compound concentration 10.0 uM
Chain of Beta-2 adrenergic receptor (Homo sapiens) (P07550 whole entry, looked up): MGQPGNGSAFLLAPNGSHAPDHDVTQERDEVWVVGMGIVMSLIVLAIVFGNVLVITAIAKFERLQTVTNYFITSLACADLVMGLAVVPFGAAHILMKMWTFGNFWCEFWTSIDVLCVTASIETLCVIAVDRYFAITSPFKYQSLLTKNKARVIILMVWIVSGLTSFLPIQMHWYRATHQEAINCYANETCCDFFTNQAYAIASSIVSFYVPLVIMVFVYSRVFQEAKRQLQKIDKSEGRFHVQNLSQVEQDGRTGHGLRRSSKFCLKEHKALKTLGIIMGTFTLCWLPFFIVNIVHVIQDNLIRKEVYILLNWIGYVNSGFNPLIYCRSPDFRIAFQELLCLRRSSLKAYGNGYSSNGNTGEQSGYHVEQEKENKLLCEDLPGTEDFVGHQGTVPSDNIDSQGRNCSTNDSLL

[20] = biological target: 5-hydroxytryptamine receptor 2A (Homo sapiens) (UniProt P28223); settings: Compound concentration 10.0 uM
Chain of 5-hydroxytryptamine receptor 2A (Homo sapiens) (P28223 whole entry): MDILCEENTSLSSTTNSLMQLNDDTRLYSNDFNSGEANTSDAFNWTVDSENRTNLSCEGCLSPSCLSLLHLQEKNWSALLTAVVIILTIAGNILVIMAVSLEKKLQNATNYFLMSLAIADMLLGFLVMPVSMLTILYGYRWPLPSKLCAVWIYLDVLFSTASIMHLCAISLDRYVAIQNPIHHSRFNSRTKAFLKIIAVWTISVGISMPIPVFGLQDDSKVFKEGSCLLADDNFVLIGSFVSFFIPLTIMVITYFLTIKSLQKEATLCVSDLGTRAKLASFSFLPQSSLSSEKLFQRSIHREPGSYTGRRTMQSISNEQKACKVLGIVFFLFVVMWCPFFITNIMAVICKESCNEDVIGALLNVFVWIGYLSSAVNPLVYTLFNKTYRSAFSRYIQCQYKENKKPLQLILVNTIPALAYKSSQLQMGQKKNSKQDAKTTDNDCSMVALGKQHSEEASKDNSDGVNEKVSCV

[21] = biological target: Alpha-1B adrenergic receptor (Homo sapiens) (UniProt P35368); settings: Compound concentration 10.0 uM
Chain of Alpha-1B adrenergic receptor (Homo sapiens) (P35368 whole entry): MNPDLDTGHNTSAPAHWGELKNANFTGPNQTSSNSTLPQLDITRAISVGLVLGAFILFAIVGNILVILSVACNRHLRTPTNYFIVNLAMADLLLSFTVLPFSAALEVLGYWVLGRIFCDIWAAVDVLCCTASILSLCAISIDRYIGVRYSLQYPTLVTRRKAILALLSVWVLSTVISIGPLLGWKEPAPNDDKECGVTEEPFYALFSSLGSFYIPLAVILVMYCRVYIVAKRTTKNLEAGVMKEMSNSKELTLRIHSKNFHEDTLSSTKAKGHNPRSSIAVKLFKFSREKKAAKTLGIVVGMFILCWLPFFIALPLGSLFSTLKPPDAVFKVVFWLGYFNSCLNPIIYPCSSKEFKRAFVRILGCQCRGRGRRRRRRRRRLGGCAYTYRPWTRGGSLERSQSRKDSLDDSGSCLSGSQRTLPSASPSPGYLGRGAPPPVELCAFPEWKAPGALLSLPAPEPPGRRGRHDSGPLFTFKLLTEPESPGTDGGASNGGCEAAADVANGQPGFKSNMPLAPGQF

[22] = biological target: 5-hydroxytryptamine receptor 3A (Homo sapiens) (UniProt P46098); settings: Compound concentration 10.0 uM
Chain of 5-hydroxytryptamine receptor 3A (Homo sapiens) (P46098 whole entry): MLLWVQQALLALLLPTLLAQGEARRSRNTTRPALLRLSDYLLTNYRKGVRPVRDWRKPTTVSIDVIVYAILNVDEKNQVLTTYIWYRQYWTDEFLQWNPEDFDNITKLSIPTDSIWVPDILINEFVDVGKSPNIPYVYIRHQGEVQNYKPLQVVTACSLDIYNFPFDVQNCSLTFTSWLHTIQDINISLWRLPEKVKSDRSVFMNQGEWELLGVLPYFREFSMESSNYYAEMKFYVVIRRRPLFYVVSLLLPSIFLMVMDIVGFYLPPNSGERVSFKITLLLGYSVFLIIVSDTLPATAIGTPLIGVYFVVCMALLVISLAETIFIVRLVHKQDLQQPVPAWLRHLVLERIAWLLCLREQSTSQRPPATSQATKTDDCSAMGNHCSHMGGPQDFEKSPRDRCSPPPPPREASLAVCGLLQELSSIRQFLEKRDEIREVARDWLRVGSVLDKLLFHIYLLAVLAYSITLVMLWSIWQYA

[23] = biological target: Muscarinic acetylcholine receptor M5 (Homo sapiens) (UniProt P08912); settings: Compound concentration 10.0 uM
Chain of Muscarinic acetylcholine receptor M5 (Homo sapiens) (P08912 whole entry): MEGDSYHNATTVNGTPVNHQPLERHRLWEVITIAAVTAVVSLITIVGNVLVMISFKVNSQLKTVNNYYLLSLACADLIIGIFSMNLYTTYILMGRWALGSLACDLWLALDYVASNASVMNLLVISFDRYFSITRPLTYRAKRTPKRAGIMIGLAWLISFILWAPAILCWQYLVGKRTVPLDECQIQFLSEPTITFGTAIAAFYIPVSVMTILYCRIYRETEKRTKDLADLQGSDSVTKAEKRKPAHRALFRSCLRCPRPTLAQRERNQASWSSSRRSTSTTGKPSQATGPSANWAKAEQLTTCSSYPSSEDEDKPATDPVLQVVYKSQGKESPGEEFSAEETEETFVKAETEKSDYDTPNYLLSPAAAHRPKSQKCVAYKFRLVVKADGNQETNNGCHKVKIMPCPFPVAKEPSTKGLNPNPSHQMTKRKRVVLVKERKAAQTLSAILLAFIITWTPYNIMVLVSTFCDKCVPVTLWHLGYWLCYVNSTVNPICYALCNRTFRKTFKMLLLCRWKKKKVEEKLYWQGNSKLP

Chain of Kappa-type opioid receptor (Homo sapiens) (P41145 whole entry): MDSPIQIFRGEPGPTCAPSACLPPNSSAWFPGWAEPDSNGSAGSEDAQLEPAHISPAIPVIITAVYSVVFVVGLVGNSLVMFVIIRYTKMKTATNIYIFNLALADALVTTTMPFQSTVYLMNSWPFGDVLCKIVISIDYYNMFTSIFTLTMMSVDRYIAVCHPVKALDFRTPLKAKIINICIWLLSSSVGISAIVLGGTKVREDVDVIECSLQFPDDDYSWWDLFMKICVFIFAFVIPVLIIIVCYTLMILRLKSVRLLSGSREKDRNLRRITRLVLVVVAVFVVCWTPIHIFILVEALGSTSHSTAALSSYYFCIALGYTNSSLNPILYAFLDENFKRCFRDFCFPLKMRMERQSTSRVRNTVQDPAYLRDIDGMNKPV

In the case of `O=C1NCCCC1N1Cc2cc(C3CCN(C(=O)CCCCCN4CCC(c5ccc(Oc6nn7cnnc7c7c6CCCC7)cc5)CC4)CC3)ccc2C1=O` (stereo unspecified), the inhibition [1] is reported as -3%, the inhibition [2] is reported as 29.3% and the inhibition [3] is reported as 6%. It also gave an inhibition [4] of 38%, an inhibition [5] of 29% and an inhibition [6] of 13%. It also gave an inhibition [7] of -5%, an inhibition [8] of 8.76% and an inhibition [9] of 62%. It also gave an inhibition [10] of 26.1%, an inhibition [11] of 35% and an inhibition [12] of 15.9%. For the same molecule, the inhibition [13] was 22%, the inhibition [14] was 21.7% and the inhibition [15] was -5%. The inhibition [16] was -3%, the inhibition [17] was 12% and the inhibition [18] was 32%. For the same molecule, the inhibition [19] was 13%, the inhibition [20] was 21% and the inhibition [21] was 2.86%. The inhibition [22] was 23.8% and the inhibition [23] was 41.8%.

With `O=C1CCC(N2Cc3cc(C4CCN(C(=O)CCCCCN5CCC(c6ccc(Oc7nn8cnnc8c8c7CCCC8)cc6)CC5)CC4)ccc3C2=O)C(=O)N1` (stereo unspecified) the inhibition [1] was -8%, the inhibition [2] was 27.6% and the inhibition [3] was 24%. It also gave an inhibition [4] of 45%, an inhibition [5] of 26% and an inhibition [6] of 10%. It also gave an inhibition [7] of 2%, an inhibition [8] of 19.8% and an inhibition [9] of 79%. For the same molecule, the inhibition [10] was 13.9%, the inhibition [11] was 18% and the inhibition [12] was 11.7%. It also gave an inhibition [13] of 22%, an inhibition [14] of 20.9% and an inhibition [15] of -7%. It also gave an inhibition [16] of 0%, an inhibition [17] of 14% and an inhibition [18] of 28%. The inhibition [19] was -4%, the inhibition [20] was 18.6% and the inhibition [21] was 6.88%. It also gave an inhibition [22] of 22.9% and an inhibition [23] of 71%.
